{"source": "patent US9820483B2", "about": "“Microbial composition” (Rohm and Haas Company, priority 2011, dated 2017)", "key": {"E. coli ATCC #10536": {"system": "E. coli ATCC #10536", "assay": "Synergy test: high resolution MBC microtiter plate assay in phosphate buffer containing 35% dipropylene glycol, 15 seconds contact", "format": "cell-based, Escherichia coli", "details": "E. coli 10536, complete kill in 15 seconds, phosphate buffer with 35% DPG", "excerpt": "One measure of synergy is the industrially accepted method described by Kull, F. C.; Eisman. P. C.; Sylwestrowicz, H. D. and Mayer, R. L., in Applied Microbiology 9:538-541 (1961), using the ratio determined by the formula: Qa/QA÷Qb/QB=Synergy Index (“SI”) wherein: QA=concentration of compound A (first component) in percent, acting alone, which produced an end point (MBC of Compound A). […]=concentration of compound A in percent, in the mixture, which produced an end point. QB=concentration of compound B (second component) in percent, acting alone, which produced an end point (MBC of Compound B). Qb=concentration of compound B in percent, in the mixture, which produced an end point.\nWhen the sum of Qa/QA and Qb/QB is greater than one, antagonism is indicated. […] The lower the SI, the greater is the synergy shown by that particular mixture. The minimum biocidal concentration (MBC) of a microbicide is the lowest concentration tested under a specific set of conditions that provides complete kill of the tested microorganisms.\nSynergy tests were conducted using standard microtiter plate assays with phosphate buffer containing 35% dipropylene glycol (DPG). In this method, a wide range of combinations of chemicals was tested by conducting high resolution MBC assays of Component (A) in the presence of various concentrations of Component (B). High resolution MBCs were determined by adding varying amounts of microbicide to one column of a microtiter plate and doing subsequent ten-fold dilutions using an automated liquid handling system to obtain a series of closely spaced endpoints. The MBC plate was inoculated one column at a time with the test microorganism. An aliquot of the inoculated well was transferred at 15 seconds to a plate containing a neutralizing agent (D/E Neutralizing Broth), mixed and held for 5 minutes before being transferred to a growth plate containing trypticase soy broth (TSB). The TSB plate was incubated at 37° C. and read for the presence/absence of growth at 24 hours. The lowest level tested that provided complete kill (as evidenced by no growth in the microtitre plate) of the test organisms in 15 seconds is the minimum biocidal concentration (MBC).\nThe synergy of the combinations of the present invention was determined against a bacterium, Esherichia coli (E. coli—ATCC #10536), at a concentration of approximately 1×10^8 bacteria per mL. This microorganism is representative of natural contaminants in many consumer and industrial applications."}, "[1]": {"system": "Escherichia coli (E. coli—ATCC #10536)", "assay": "Automated assessment of efficacy in model surfactant base (2.85% sodium cocoyl glycinate + 1.85% sodium lauroamphoacetate, pH 10), 15 seconds exposure, delta OD450/OD590 in D/E quench", "format": "cell-based", "details": "for MBC: in 2.85% sodium cocoyl glycinate + 1.85% sodium lauroamphoacetate solution at pH 10, E. coli", "protocol": "Solutions were prepared such that the concentrations of the surfactant components and test actives were 1.1× the final desired concentration in order to allow for dilution with the bacterial inoculum in the test. The solutions were manually adjusted to pH 10.0 by dropwise addition of sodium hydroxide solution, as measured with a pH meter at ambient temperature.\nTests were conducted using standard microtiter plate assays using an automated liquid handling system. 270 μl of the surfactant test solution was pipetted into each well of the microtitre plate and 30 μl of the bacterial suspension was then added. After exactly 15 seconds of bacterial exposure, a 30 μl volume of bacterial cells was withdrawn and transferred to 270 μl of D/E quench solution. After 5 minutes in the D/E quench, the optical density (OD) was measured for each plate in turn at two specific wavelengths (450 nm and 590 nm). These provide a dual check of antimicrobial activity, as the OD450 reading is specific for the yellow colour of D/E quench when bacterial growth is observed, whereas OD590 is specific for the initial purple colour of the D/E quench which is retained if no bacterial growth is observed. After the time zero OD measurements, plates were then incubated at 37° C. overnight (16 hours) before repeating the OD measurements. Delta OD values were calculated by subtracting […]. Bacterial growth is observed as an increase in OD450 and a decrease in ΔOD590. To identify antibacterially efficacious systems (those preventing appreciable bacterial growth after incubation), the following threshold changes in OD readings have been adopted: if (1). OD450 increases by less than 0.2 absorbance unit on incubation and (2). OD590 decreases by less than 0.35 unit on incubation. Conversely, where OD450 increases by more than 0.2 AU and OD590 decreases by more than 0.35 unit after incubation, corresponding to a colour shift from purple to yellow, the test system allows bacterial growth and is not deemed efficacious. Four replicate measurements in the same plate have been made for each test system. The number of replicate wells showing either bacterial growth or no growth is also readily assessed by eye by following the colour change.\nDose responses for individual components and binary mixtures of actives at a fixed concentration ratio were generated by sequential dilution of liquors with further surfactant solution to obtain a series of endpoints.\nIn some selected cases, the combinations were also tested at the weight ratio 1:1.\nThe method used was the same as in the above Table."}, "[2]": {"system": "Staphylococcus aureus (10788 strain)", "assay": "Antimicrobial efficacy of actives against S. aureus in water, 15 seconds contact, NMBS", "format": "cell-based", "details": "for NMBS: 15 s", "protocol": "Selected materials were also tested against a representative Gram positive Staphylococcus aureus.\nThe following assay describes the testing of 8 materials using 6 dilutions across half of a 96-well micro titre plate (MTP). Using this approach it is possible to assay 16 actives (without replicates) with one full dilution plate, replicating this set up in two halves of the plate columns, 1-6 and 7-12.\nBacterial stock (30 μl) was then added to the prepared 270 μl of the solution of actives in the Screening Plate and mixed, using a multichannel pipette with 8 tips to aspirate and dispense the same volume of bacterial stock in parallel to 8 wells in rows A-H. After a contact time of 15 seconds, the mixtures were quenched by transferring 30 μl volumes of the mixtures into the 270 μl D/E neutralising solution in the prepared dilution plate, using aspiration to mix. After exactly 5 minutes in the D/E neutralising solution, […] were transferred from column 1 to column 2 of the Dilution MTP and mixed, before transferring further 30 μl volumes from column 2 into column 3. This process was repeated serially diluting the bacteria across the plate to column 6.\n30 μl volumes from each well in the Dilution MTP were transferred onto pre-labelled segment of Tryptone Soya Agar (TSA) plates starting from the lowest bacterial concentration (highest dilution, column 6) to the highest bacterial concentration (column 1). The TSA plates were allowed to stand for ca. 2 hours so that the 30 μl inocula spots could dry and the plates were then inverted and incubated overnight at 37° C. before enumerating the bacterial colonies at the labelled dilutions to determine the effects of the actives on bacterial growth.\nMean bacterial survival numbers NMBS (expressed in Log CFU/ml) are obtained by first determining the segment of the TSA plate where the number of bacterial colonies is countable. From the colony number in this segment. NMBS is calculated by the formula: NMBS=log {Ncol·10^DF·100/3} Here, Ncol is the colony count, and DF is the dilution factor taken from the MTP-well corresponding to the TSA plate segment (i.e. DF may range from 1 for the quench, to 6 for the highest dilution). The factor 100/3 is a conversion factor from the volume of the inocula spot to one milliliter.\nEvery assay test was performed in triplicate.\nThus, a value of NMBS as of about 7 corresponds to a count of about […] from the fifth dilution well, i.e. with DF=5. Such a count of about 7 is generally observed when bacteria are exposed to non-biocidal materials. In case no surviving colonies are observed in any segment of the TSA plate, this is interpreted as complete kill and a value of NMBS=0 is reported.\nS. aureus Bacterial stock was prepared as shown below and the antibacterial efficacy of the active was carried out as explained earlier for E. Coli.\nAn overnight culture of Staphylococcus aureus (10788 strain) was inoculated onto a Tripticase Soy Agar (TSA) plate and grown for ca. 18 hrs at 37° C. The culture of S. aureus was washed from the plate using sterile saline (0.85% NaCl) solution and a sterile spreader and suspended in 50 ml saline. This suspension was separated into equal volumes and centrifuged at 4000 rpm for 15 minutes. Following centrifugation the pellet was re-suspended in saline to give a final concentration of 0.35 OD620 equivalent to about 10^8 cells per milliliter for this particular organism. Here. OD620 indicates the absorbance of a sample in a cuvette of 1.0 cm path length at a wavelength of 620 nm. This bacterial stock was used for assaying against antimicrobial actives (in triplicate)."}, "[3]": {"system": "Escherichia coli (10536 strain)", "assay": "Antimicrobial efficacy in water, 15 seconds contact, mean bacterial survival NMBS on TSA plates", "format": "cell-based", "details": "0.06% w/v alone, E. coli, 15 s", "protocol": "Antimicrobial efficacy is tested against a representative pathogenic bacterial organism, Gram negative Escherichia coli. Concentrations of actives are expressed in terms of the percentage weight/volume (% w/v) throughout the following Examples. […] Here, OD620 indicates the absorbance of a sample in a cuvette of 1.0 cm path length at a wavelength of 620 nm. This bacterial stock was used for assaying against antimicrobial actives (in triplicate). The following assay describes the testing of 8 materials using 6 dilutions across half of a 96-well micro titre plate (MTP). […] 1M solutions of the test actives were prepared in dimethylsulphoxide (DMSO). […] This MTP was labelled as the “Screening plate”. […] The composition of the neutralising solution was as follows: pancreatic digest of casein, 5.0 g/L; […] 270 μl of tryptone diluent solution was added to all the remaining wells of the Dilution MTP (columns 2-6). […] After a contact time of 15 seconds, the mixtures were quenched by transferring 30 μl volumes of the mixtures into the 270 μl D/E neutralising solution in the prepared dilution plate, using aspiration to mix. […] Mean bacterial survival numbers NMBS (expressed in Log CFU/ml) are obtained by first determining the segment of the TSA plate where the number of bacterial colonies is countable. From the colony number in this segment. NMBS is calculated by the formula: […] DF may range from 1 for the quench, to 6 for the highest dilution). The factor 100/3 is a conversion factor from the volume of the inocula spot to one milliliter. Every assay test was performed in triplicate. The reported mean bacterial survival results are the average of such a triplet, the error is the corresponding standard deviation. […] Such a count of about 7 is generally observed when bacteria are exposed to non-biocidal materials."}}, "note": "Read-outs that look alike come from different tables or passages of the source.", "data": [{"compound": "C=C(C)C1CC=C(C)C(O)C1", "note": "(stereo not drawn) [2-methyl-5-(prop-1-en-2-yl)cyclohex-2-enol]", "values": [{"measurement": "MBC of the component acting alone (QA or QB; Qa or Qb with the other component at 0)", "setting": "E. coli ATCC #10536", "result": 0.7, "unit": "weight %"}, {"measurement": "MBC", "setting": "[1]; Escherichia coli, ATCC10536, 15 s, read-out: MBC", "result": 4000, "unit": "µg/mL"}, {"measurement": "No. of replicates showing growth (out of 4)", "setting": "[1]; single active at 0.2% w/v", "result": 4}, {"measurement": "Δ OD 590 nm = OD590 (time = 16 hours) − OD590 (time zero), Mean", "setting": "[1]; single active at 0.2% w/v", "result": 0.61}, {"measurement": "ΔOD 450 nm = OD450 (time = 16 hours) − OD450 (time zero), Mean", "setting": "[1]; single active at 0.2% w/v", "result": "−0.51"}, {"measurement": "No. of replicates showing growth (out of 4)", "setting": "[1]; single active at 0.3% w/v", "result": 4}, {"measurement": "Δ OD 590 nm = OD590 (time = 16 hours) − OD590 (time zero), Mean", "setting": "[1]; single active at 0.3% w/v", "result": 0.59}, {"measurement": "ΔOD 450 nm = OD450 (time = 16 hours) − OD450 (time zero), Mean", "setting": "[1]; single active at 0.3% w/v", "result": "−0.50"}, {"measurement": "No. of replicates showing growth (out of 4)", "setting": "[1]; single active at 0.4% w/v", "result": 4}, {"measurement": "Δ OD 590 nm = OD590 (time = 16 hours) − OD590 (time zero), Mean", "setting": "[1]; single active at 0.4% w/v", "result": 0.47}, {"measurement": "ΔOD 450 nm = OD450 (time = 16 hours) − OD450 (time zero), Mean", "setting": "[1]; single active at 0.4% w/v", "result": "−0.35"}, {"measurement": "No. of replicates showing growth (out of 4)", "setting": "[1]; single active at […] w/v", "result": 4}, {"measurement": "Δ OD 590 nm = OD590 (time = 16 hours) − OD590 (time zero), Mean", "setting": "[1]; single active at […] w/v", "result": 0.63}, {"measurement": "ΔOD 450 nm = OD450 (time = 16 hours) − OD450 (time zero), Mean", "setting": "[1]; single active at […] w/v", "result": "−0.50"}, {"measurement": "NMBS", "setting": "[2]; 0.5% w/v alone, S. aureus", "result": 7.27, "unit": "log CFU/ml"}]}, {"compound": "CCCc1ccccc1O", "note": "[2-n-propylphenol]", "values": [{"measurement": "NMBS", "setting": "[3]", "result": 7.68, "unit": "log CFU/ml"}, {"measurement": "MBC", "setting": "[1]", "result": 0.175, "unit": "% w/v"}, {"measurement": "No. of replicates showing growth (out of 4)", "setting": "[1]; single active at 0.05% w/v", "result": 4}, {"measurement": "Δ OD 590 nm = OD590 (time = 16 hours) − OD590 (time zero), Mean", "setting": "[1]; single active at 0.05% w/v", "result": 0.46}, {"measurement": "No. of replicates showing growth (out of 4)", "setting": "[1]; single active at […] w/v", "result": 4}, {"measurement": "Δ OD 590 nm = OD590 (time = 16 hours) − OD590 (time zero), Mean", "setting": "[1]; single active at […] w/v", "result": 0.66}, {"measurement": "NMBS", "setting": "[2]; 0.03% w/v alone, S. aureus", "result": 7.12, "unit": "log CFU/ml"}, {"measurement": "bacterial kill (in words)", "setting": "[2]; […] 2-propylphenol alone, S. aureus", "result": "Complete bacterial kill"}, {"measurement": "MBC", "setting": "[2]; component alone, against S. aureus, in water", "result": 0.25, "unit": "% w/v"}]}]}
